Laboratory results: article PMC6153204 (2018)

Tests used:
[1] = tested on: A09 (DNA, aptamer) GACATATTCAGTCTGACAGCGGAAGCGGGTCAGTCCAACTCACGGTCTCGCATGCACGGGAGATGGACGAATATCGTCTAGC; test: plate saturation binding, absorbance at 450 nm, nonlinear regression; settings: varied aptamer, fixed rongalite; immobilised compound (implied by plate assay); buffer not stated
[2] = tested on: B09 (DNA, aptamer) GCTAGACGATATTCGTCCATCTCCCGTGCATGCGAGACCGTGAGTTGGACTGACCCGCTTCCGCTGTCAGACTGAATATGTC; test: as above; settings: varied aptamer, fixed rongalite; immobilised compound (implied by plate assay); buffer not stated

With `O=S(O)CO` the Kd [1] was 61.12 ± 16.36 nM and the Kd [2] was 39.81 ± 12.73 nM.
